In patent US12685740B2, “Compositions for the elimination of senescent cells” (Universität für Bodenkultur Wien, priority 2018, dated 2026):
Like-named read-outs stand apart in the source and are kept apart here.

Experiments:
[1] = test system: intracellular levels of AA of HDF161; assay: Quantification of intracellular arachidonic acid by ELISA (FIG. 17b); format: cell-based, human; details: 10 μM MK886 together with 100 μM Diclofenac for 6 hrs, vs solvent (1% DMSO)
Procedure: The cells were harvested by trypsinization, centrifuged at 1000 g and 4° C. for 5 min and washed three times with cold PBS. The Cells were counted using a Vi-CELL XR (Beckman Coulter) automated cell counter and the cell pellets were resuspended in cold PBS to obtain a cell suspension with 2000-5000 cells/μl. Subsequently the cells were lysed by 30 cycles of sonication (30 s on, 30 s off) in a Bioruptor (Diagenode). Cell debris was removed by 10 min centrifugation at 1500 g and 4° C. and the supernatant was analyzed with an ELISA assay (Novus Biologicals; NBP2-66372) according to the manufacturer's instructions.
In order to verify, whether novel senolytics can be identified in an efficient screen measuring the intracellular levels of AA, an ELISA test (Novus Biologicals; NBP2-66372) was used according to the manufacturer's instructions to first, confirm that novel senolytics identified in the examples above indeed lead to an accumulation of intracellular AA, and second, to screen for compounds, which cause an increase of intracellular levels of AA in senescent HDFs.

[2] = test system: Doxorubicin-induced premature senescent HDF76, HDF161, HDF164; assay: Alamar blue viability assay, SIPS vs quiescent HDF, combined data of three donors (FIG. 9, 11); format: cell-based, human
Procedure: (§1) Cells were seeded at a cell density of 2,800 cells/cm^2 one day prior to the treatment. The cells were treated nine times over a period of 11 days with 60-80 μM H2O2 supplemented to the media for one hour followed by a media change. Alternatively, depending on cell type cells were seeded at a cell density of 3,500-7,000 cells/cm^2 one day prior to the treatment and SIPS was induced with 100-200 nM doxorubicin (D1515, Sigma-Aldrich) supplemented to the medium for 6 days. Induction of senescence was verified by SA-β-gal staining, p21 expression, and absence of BrdU incorporation. AnnexinV/PI staining was performed to assure that the treatment was non-lethal and SIPS HDFs were cultured and monitored for over 50 days to assure that the induced growth arrest was permanent (Terlecki-Zaniewicz et al. 2018).
(§2) Alamar blue (DAL1100, Thermo Fisher Scientific) assay was performed according to the manufacturer's instructions. Cells were treated with the respective substances for 9 days with a media change on day 0, 3 and 6. The control was treated with the respective concentration of the solvent (DMSO).
(§3) Premature senescence was induced in adult and foreskin HDFs with doxorubicin, which was supplemented to the growth media for 6 days. Treatment with senolytic substances started 8 days after completion of the SIPS treatment to allow for cells to enter senescence. Quiescent cells were used as control. Growth media was supplemented with senolytic substances for 9 days with media changes every 3 days. All samples, including the control, contained the same concentration of solvent (DMSO). Subsequently, the viability was assessed using an alamar blue assay (Thermo Fisher Scientific).

[3] = test system: H2O2-induced premature senescent human dermal fibroblasts; assay: Alamar blue viability assay, H2O2-induced premature senescent (SIPS) vs quiescent HDFs (FIG. 4); format: cell-based; details: single treatment, 9 days, SIPS vs quiescent (Q) HDFs
Procedure: as §1, with “([…],” for “(D1515,”, “([…]” for “(Terlecki-Zaniewicz”, “2018). Alamar blue (DAL1100, Thermo Fisher Scientific) assay was performed according to the manufacturer's instructions. […] The control was treated with the respective concentration of the solvent (DMSO). Premature senescence was induced in HDF with chronic oxidative stress treatment (9 doses of H2O2 treatment over the period of 11 days). Quiescent cells were used as control. […] Subsequently, the viability was assessed using an alamar blue assay (Thermo Fisher Scientific).” for “2018).”

[4] = test system: Doxorubicin-induced premature senescent HDF161; assay: Alamar blue viability assay, doxorubicin-induced SIPS vs quiescent HDF161 (FIG. 6); format: cell-based, human; details: for EC50: read-out: EC50 for senescent cells
Procedure: as §1, §2, §3

[5] = test system: Doxorubicin-induced premature senescent RPTEC1; assay: Alamar blue viability assay, doxorubicin-induced SIPS vs quiescent RPTEC1 (FIG. 13); format: cell-based, human
Procedure: as §1, §2

[6] = test system: Doxorubicin-induced premature senescent HDF164; assay: Alamar blue viability assay, doxorubicin-induced SIPS vs quiescent HDF164 (FIG. 7, 14); format: cell-based, human; details: for EC50: read-out: EC50 for senescent cells
Procedure: as §1, §2, §3
as §3, with “adult” for “adult and foreskin”, “allow” for “allow for”

[7] = test system: Doxorubicin-induced premature senescent fHDF166; assay: Alamar blue viability assay, doxorubicin-induced SIPS vs quiescent fHDF166 (FIG. 8, 15); format: cell-based, human; details: for EC50: read-out: EC50 for senescent cells
Procedure: as §1, §2, §3
as §3, with “In order to test this, premature” for “Premature”, “in” for “in adult and”

[8] = test system: doxorubicin-induced premature senescent HUVECs; assay: Alamar blue viability assay, doxorubicin-induced SIPS vs quiescent HUVECs (FIG. 5); format: cell-based, human; details: single treatment, 9 days, SIPS vs quiescent (Q) HUVECs
Procedure: as §1, §2
as §3, with “HUVECs” for “adult and foreskin HDFs”, “doxorubicin (Sigma-Aldrich),” for “doxorubicin,”, “Scientific) (FIG. 5).” for “Scientific).”

COX-1 = COX-1 (Homo sapiens, UniProt P23219); details: cited from earlier work
cyclooxygenase = details: Wang et al. 2000; read-out: IC50 of inhibiting cyclooxygenase activity; cited from earlier work
[9] = test system: Doxorubicin-induced premature senescent HLF102; assay: Alamar blue viability assay, doxorubicin-induced SIPS vs quiescent HLF102 (FIG. 12); format: cell-based, human
Procedure: as §1, §2

[10] = test system: Doxorubicin-induced premature senescent HDF76, HDF85, HDF161; assay: Rescue of senolytic effect by manipulating cPLA2 activity, viability after 72 hours (FIG. 18); format: cell-based
Procedure: Doxorubicin-induced premature senescent HDF76, HDF85, HDF161 (SIPS) and quiescent control cells (Q) were either treated for 72 hours with the combination of 1 μM ACSL4 inhibitor Triacsin C (TrC) and 1 μM ALOXS inhibitor MK886 alone or in addition with either 2.5 μM A23187 (cPLA2 activator) or 12.5 μM ASB14780 (cPLA2 inhibitor).
This was also the case, when the enzymatic activity of the cytosolic phospholipase A2 was reduced by the small molecule inhibitor ASB14780 (Sigma Aldrich, SML1913).

[11] = single treatment (DQ: 15 μM Quercetin with increasing Dasatinib)
[12] = MK886 combined with 50 μM Diclofenac
[13] = increasing MK886 combined with 50 μM Diclofenac
[14] = increasing MK886 combined with 0.4 mM ASA
[15] = 12.5 μM ASB14780 added to 1 μM TrC and 1 μM MK886, 72 hours

Sequence of COX-1 (P23219 24-599): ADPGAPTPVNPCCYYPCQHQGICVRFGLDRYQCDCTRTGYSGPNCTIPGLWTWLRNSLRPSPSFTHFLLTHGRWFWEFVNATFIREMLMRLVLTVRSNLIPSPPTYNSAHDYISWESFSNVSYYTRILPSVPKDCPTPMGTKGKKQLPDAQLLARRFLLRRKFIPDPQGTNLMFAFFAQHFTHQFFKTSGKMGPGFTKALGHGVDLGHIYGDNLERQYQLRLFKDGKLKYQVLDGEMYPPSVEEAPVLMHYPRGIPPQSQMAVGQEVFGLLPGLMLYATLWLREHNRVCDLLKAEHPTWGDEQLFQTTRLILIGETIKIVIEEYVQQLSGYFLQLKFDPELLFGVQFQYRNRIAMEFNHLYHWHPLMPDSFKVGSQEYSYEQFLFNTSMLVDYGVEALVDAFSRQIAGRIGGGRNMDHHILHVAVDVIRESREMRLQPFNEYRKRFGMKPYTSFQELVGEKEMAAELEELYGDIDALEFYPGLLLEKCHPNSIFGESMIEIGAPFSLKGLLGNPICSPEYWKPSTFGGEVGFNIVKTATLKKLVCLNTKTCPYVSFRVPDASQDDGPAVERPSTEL

## CC(C)c1ccc2c(c1)c(SC(C)(C)C)c(CC(C)(C)C(=O)O)n2Cc1ccc(Cl)cc1 [MK886]
[1]
  intracellular AA levels: increased
[2]; increasing MK886 combined with 0.5 μM TrC (dual inhibition of ACSL4 and ALOX5)
  senolytic effect: significant senolytic effect
[2]; [11]
  senolytic effect: not significant
[3]
  senolytic effect: significant senolytic effect
[4]; MK886 as single treatment
  fold change between the EC50 of senescent versus quiescent cells: 1.58 fold
  EC50: 26.4 µM
[4]; MK886 combined with 2 μM Celecoxib
  fold change between the EC50 of senescent versus quiescent cells: 2.55 fold
[4]; [12]
  fold change between the EC50 of senescent versus quiescent cells: 2.53 fold
[4]; MK886 combined with 0.4 mM ASA
  fold change between the EC50 of senescent versus quiescent cells: 1.95 fold
[4]; increasing MK886 combined with 2 μM Celecoxib
  EC50: 17 µM
[4]; [13]
  EC50: 9 µM
[4]; [14]
  EC50: 18.8 µM
[5]; increasing MK886 combined with 0.1 μM TrC and 25 μM Diclofenac
  EC50 fold change between senescent and quiescent cells: around 700 fold
[5]; increasing MK886 combined with 25 μM Diclofenac
  EC50 fold change between senescent and quiescent cells: 5.11 fold
[5]; single treatment
  EC50 fold change between senescent and quiescent cells: 2.66 fold
[6]; MK886 as single treatment
  fold change between the EC50 of senescent versus quiescent cells: 1.31 fold
  EC50: 34.7 µM
[6]; [12]
  fold change between the EC50 of senescent versus quiescent cells: 1.61 fold
[6]; MK886 combined with 100 μM Diclofenac
  fold change between the EC50 of senescent versus quiescent cells: 1.88 fold
[6]; MK886 combined with 200 μM Diclofenac
  fold change between the EC50 of senescent versus quiescent cells: 1.64 fold
[6]; MK886 combined with 0.4 mM ASA
  fold change between the EC50 of senescent versus quiescent cells: 1.46 fold
[6]; MK886 combined with 0.4 mM ASA and 5 μM Oligomycin A
  fold change between the EC50 of senescent versus quiescent cells: 4.51 fold
[6]; [13]
  EC50: 17.3 µM
[6]; increasing MK886 combined with 100 μM Diclofenac
  EC50: 11.2 µM
[6]; increasing MK886 combined with 200 μM Diclofenac
  EC50: 8.39 µM
[6]; increasing MK886 combined with 0.4 mM ASA and 5 μM Oligomycin A
  EC50: 9.9 µM
[6]; [14]
  EC50: 30.4 µM
[7]; MK886 as single treatment
  fold change between the EC50 of senescent versus quiescent cells: 1.49 fold
  EC50: 34 µM
[7]; [12]
  fold change between the EC50 of senescent versus quiescent cells: 2.52 fold
[7]; MK886 combined with 0.4 mM ASA
  fold change between the EC50 of senescent versus quiescent cells: 1.51 fold
[7]; MK886 combined with 0.4 mM ASA and 2 μM CsA
  fold change between the EC50 of senescent versus quiescent cells: 2.81 fold
[7]; [13]
  EC50: 12.4 µM
[7]; increasing MK886 combined with 0.4 mM ASA and 2 μM CsA
  EC50: 14.9 µM
[7]; [14]
  EC50: 29.6 µM

## CC1(C)Cc2c(-c3ccccc3)c(-c3ccc(Cl)cc3)c(CC(=O)O)n2C1 [Licofelone]
[8]
  senolytic effect: significant senolytic effect

## CC1(C)CCC(c2ccc(Cl)cc2)=C(CN2CCN(c3ccc(C(=O)NS(=O)(=O)c4ccc(N[C@H](CCN5CCOCC5)CSc5ccccc5)c(S(=O)(=O)C(F)(F)F)c4)cc3)CC2)C1 [Navitoclax]
[2]; [11]
  senolytic effect: no senolytic effect
[8]
  senolytic effect: significant senolytic effect

## CC(=O)Oc1ccccc1C(=O)O [ASA, acetylsalicylic acid]
[3]
  senolytic effect: significant senolytic effect
[8]
  senolytic effect: significant senolytic effect

## CC(C)=CCC[C@]1(C)[C@@H](CC=C(C)C)C[C@@]2(CC=C(C)C)C(=O)[C@]1(C(=O)C(C)C)C(=O)C(CC=C(C)C)=C2O [hyperforin]
COX-1
  COX-1 inhibition relative to aspirin: 3-18 times

## O=c1c(O)c(-c2ccc(O)c(O)c2)oc2cc(O)cc(O)c12 [Quercetin]
cyclooxygenase
  IC50: ≥ 100 µM

## CCC/C=C/C/C=C/C=C/C=N/NN=O [TrC, Triacsin C]
[2]; [11]
  senolytic effect: significant senolytic effect
[5]; single treatment
  EC50 fold change between senescent and quiescent cells: around 350 fold
[9]; TrC as single treatment
  EC50 fold change between senescent and quiescent cells: 9.19 fold
[9]; increasing TrC combined with 1 μM MK886 and 50 μM Diclofenac
  EC50 fold change between senescent and quiescent cells: 13.75 fold

## O=C(O)Cc1ccccc1Nc1c(Cl)cccc1Cl [Diclofenac]
[5]; single treatment
  EC50 fold change between senescent and quiescent cells: 3.02 fold

## CNc1ccc2oc(C[C@H]3O[C@@]4(CC[C@H]3C)O[C@H]([C@H](C)C(=O)c3ccc[nH]3)[C@H](C)C[C@H]4C)nc2c1C(=O)O [A23187]
[10]; 2.5 μM A23187 added, 72 hours
  effect on the senolytic effect of 1 μM TrC and 1 μM MK886: abolishing the senolytic effect

## NC(CO)(CO)CO.O=C(O)CCc1ccc2c(c1)c(CCc1ccccc1)cn2-c1ccc(Oc2ccccc2)cc1 [ASB14780]
[10]; [15]
  effect on the cytotoxic effect of TrC and MK886 on senescent cells: reduced the cytotoxic effect
  viability of quiescent cells: only affected to a minor extent
